Earlier results, collected in patent US10507204B2, “Pharmaceutical composition comprising amorphous lenalidomide” (SYNTHON B.V., priority 2014, dated 2019).

- solubility in water: slightly soluble
Compound: Nc1cccc2c1CN(C1CCC(=O)NC1=O)C2=O (racemic) [Lenalidomide, (RS)-3-(4-Amino-1-oxo 1,3-dihydro-2H-isoindol-2-yl)piperidine-2,6-dione]
